{"source": "patent US8946201B2", "about": "“Methods for inhibiting TGF-β” (Saint Louis University, priority 2007, dated 2015)", "key": {"[1]": {"test_system": "Smad2 phosphorylation stimulated by TGF-β1", "experiment": "TGF-β1-stimulated Smad2 phosphorylation, Western blot, BAEC", "assay_type": "cell-based, bovine", "conditions": "25 μg/ml, 37° C. 1 hr, then 50 pM TGF-β1 0.5 hr", "protocol": "(§1) Cells were treated with increasing concentrations of cholesterol, as indicated (A, B, C), 50 μg protein/ml LDL (D), 5 μg protein/ml VLDL (D) or 50 μg/ml cholesterol (E) at 37° C. for 1 hr and then further incubated with 50 pM TGF-β1 for 30 min. Phosphorylated Smad2 (P-Smad2) and total Smad2 in the cell lysates were analyzed by 7.5% SDS-PAGE and followed by immunoblot analysis using anti-P-Smad2 and anti-Smad2 antibodies. A representative of a total of 3 analyses is shown (top). The quantitative analysis of the immunoblots is shown (bottom). […] Smad2 nuclear translocation was analyzed by indirect immunofluorescent staining using P-Smad2 antibody and rhodamine-labeled 2nd antibody (E). Rhodamine fluorescence represents P-Smad2 staining (a,b,c) whereas the nuclei were stained by DAPI staining (d,e,f).\n(§2) Cells grown to near confluence on 12-well cluster dishes were treated with cholesterol or LDL in serum-free DMEM (vol.=0.5 ml/well) at 37° C. for 1 hr. […] Treated cells were lysed and cell lysates were analyzed by 7.5% SDS-PAGE and Western blot analysis using anti-Smad2, anti-P-Smad2, anti-caveolin-1, anti-TβR-I (alk5) or anti-TβR-II antibodies as described previously (30). […]\n(§3) It has been reported that TGF-β responsiveness is determined by TGF-β partitioning between lipid raft/caveolae-mediated and clathrin-mediated endocytosis. […]"}, "PAI-1 expression": {"test_system": "PAI-1 expression", "experiment": "TGF-β1-induced PAI-1 expression, Northern blot, BAEC", "assay_type": "cell-based, bovine", "conditions": "50 μg/ml, TGF-β1 2 to 100 pM", "protocol": "(A, B, C, D, E, F) Cells were treated with 50 μg/ml cholesterol (A, B, C, D) and 50 μg/ml LDL (D) at 37° C. for 1 hr or with 1 μM fluvastatin or lovastatin (E) or several concentrations of fluvastatin (F) at 37° C. for 16 hr and then further incubated with increasing concentrations (as indicated) of TGF-β1 (A, B, C, E) or 50 pM TGF-β1 (D,F) for 2 hr. Northern blot analysis of PAI-1 and G3PDH was performed. A representative of a total of three analyses is shown (a). The relative intensities of the transcripts were quantified with a PhosphoImager. The ratio of the relative intensities of PAI-1 and G3PDH transcripts in cells treated without TGF-β1 and cholesterol, LDL or statins on the blot was taken as 1 fold or 100% of PAI-1 expression. The quantitative data from three independent analyses is shown (b). […] (G) Mv1Lu cells stably expressing a luciferase reporter gene driven by the PAI-1 promoter (MLECs-clone 32) were treated with increasing concentrations (as indicated) of cholesterol at 37 EC for 1 hr (a) or with 1 μM lovastatin at 37° C. for 16 hr (b) and then further incubated with 50 pM TGF-β for 7 hr. The luciferase activity in cells treated without cholesterol was taken as 100% (a). […] (H) Cells were incubated with 0.0625 and 0.125 pM TGF-β1 in the presence of increasing concentrations of cholesterol, as indicated. […] The experiments were carried out in triplicate."}, "TβR-I and TβR-II": {"test_system": "TβR-I and TβR-II", "experiment": "125I-TGF-β1 affinity labeling, NRK cells", "assay_type": "cell-based, rat", "conditions": "1 hr", "protocol": "(B, C, D, E) Cells were treated with increasing concentrations of cholesterol in the presence (C) and absence (B, D, E) of 0.2% β-CD, as indicated. After 1 hr at 37° C., ^125I-TGF-β1 affinity labeling of TβR-I and TβR-II in cells was performed at 0° C. ^125I-TGF-β1 affinity-labeled TβR-I and TβR-II were analyzed by 7.5% SDS-PAGE and autoradiography or quantified with a PhosphoImager. A representative of a total of three analyses is shown (top). The bracket indicates the locations of ^125I-TGF-β affinity-labeled TβR-I and TβR-II. The relative intensities of ^125I-TGF-β1 affinity-labeled TβR-I and TβR-II in cells treated without cholesterol were taken as 100%. The quantitative data from three analyses is shown (bottom).\nAfter cross-linking, cell lysates were analyzed by 7.5% SDS-PAGE and autoradiography or quantified by a PhosphoImager. For all experiments, cholesterol or cholesterol derivatives were prepared as the stock solution with a concentration of 25 mg/ml in ethanol. The final concentration of ethanol in the medium was 0.2% (by vol.)."}, "[2]": {"test_system": "Smad2 phosphorylation stimulated by TGF-β1", "experiment": "TGF-β1-stimulated Smad2 phosphorylation, Western blot, NRK cells", "assay_type": "cell-based, rat", "conditions": "25 μg/ml, 37° C. 1 hr, then 50 pM TGF-β1 0.5 hr", "protocol": "as §1, §2, §3"}}}
{"smiles": "CC(C)CCC[C@@H](C)[C@H]1CC[C@H]2[C@@H]3CC=C4C[C@@H](O)CC[C@]4(C)[C@H]3CC[C@]12C", "note": "[cholesterol]", "values": [{"measurement": "suppression of Smad2 phosphorylation stimulated by TGF-β1", "setting": "[1]", "result": 90, "unit": "%"}, {"measurement": "suppression of TGF-β1-stimulated PAI-1 expression", "setting": "PAI-1 expression", "result": "50-80%"}, {"measurement": "increase of 125I-TGF-β1 binding to TβR-I", "setting": "TβR-I and TβR-II; 50 μg/ml", "result": "~5.7", "unit": "fold"}, {"measurement": "ratio of TβR-II/TβR-I", "setting": "TβR-I and TβR-II; 50 μg/ml, 2.0 untreated", "result": 0.35}, {"measurement": "effect on binding of 125I-TGF-β1 to TβR-II", "setting": "TβR-I and TβR-II; increasing concentrations", "result": "did not significant alter"}, {"measurement": "suppression of Smad2 phosphorylation stimulated by TGF-β1", "setting": "[2]", "result": 40, "unit": "%"}]}
